Patent US8697382B2, “Method of identifying metallo-β-lactamase-producing bacteria” (Meiji Seika Pharma Co., Ltd., priority 2009, dated 2014)

Tested on: IMP-1-producing Pseudomonas aeruginosa
Test: Disk diffusion test: β-lactam agent disks placed 20 mm from a central compound (I) disk; growth inhibition zone radius measured
Assay type: cell-based
Settings: Muller-Hinton agar, overnight culture at 35° C.; for Ratio = Maximum/Minimum inhibition zone radius (degree of change in radius, A3/B3/C3): change caused by the compound (I) disk; for Inhibition zone radius, Maximum (A2/B2/C2): subzone on the compound (I) (disodium 2,3-diethylmaleate) disk side, subject to the metallo-β-lactamase inhibitor; for Inhibition zone radius, Minimum (A1/B1/C1): subzone on the side opposite to the compound (I) disk, not subject to the metallo-β-lactamase inhibitor
Excerpt: When the bacteria to be tested are MBL-producing bacteria, the shape of an inhibition zone formed around each β-lactam agent varies depending on the effect of the metallo-β-lactamase inhibitor (compound (I)). In this case, the inhibition zone formed around each β-lactam agent can be divided into two subzones (i.e., an inhibition subzone formed on the side opposite to the compound (I)-containing disk and an inhibition subzone formed on the compound (I)-containing disk side) by measurement along the center lines of the β-lactam agent-containing and compound (I)-containing disks (FIG. 1).
The inhibition subzone formed on the side opposite to the compound (I)-containing disk is not subject to the effect of the metallo-β-lactamase inhibitor. Thus, its radius can be minimized in the whole inhibition zone (e.g., the numerical value obtained here can be defined as “A1”, “B1” and “C1” for the β-lactam agents (A), (B) and (C), respectively (Table 1)). When no inhibition zone is formed, the radius of the disk can be used.
The inhibition subzone formed on the compound (I)-containing disk side is subject to the effect of the metallo-β-lactamase inhibitor. Thus, its radius can be maximized in the whole inhibition zone (e.g., the numerical value obtained here can be defined as “A2”, “B2” and “C2” for the β-lactam agents (A), (B) and (C), respectively (Table 1)). When no inhibition zone is formed, the radius of the disk can be used. Moreover, when the formed inhibition zone is wider than the distance between the disks, the distance from the center of the drug-containing disk to the compound (I)-containing disk can be used (e.g., “A2” in the flow 8 in the flowchart of FIG. 2 represents the distance from the center of the β-lactam agent (A)-containing disk to the compound (I)-containing disk).
The degree of change in the shape of the inhibition zone caused by the effect of the metallo-β-lactamase inhibitor can be measured as the ratio between the minimum and maximum radiuses of the inhibition zone, i.e., the degree of change in radius. For example, it can be calculated by dividing the maximum radius of the inhibition zone by the minimum radius thereof (e.g., this calculated value can be defined as “A3”, “B3”, and “C3”, respectively (Table 1)).
According to the disk diffusion method specified by CLSI, a Muller-Hinton agar medium was coated with a bacterial solution adjusted to McFarland standard turbidity of 0.5. No water droplet of the bacterial solution on the medium surface was confirmed, and round filter papers (diameter: approximately 6 mm) respectively containing 300 μg of a compound (I), 100 μg of biapenem as a drug (A), 100 μg of imipenem as a drug (B), and 300 μg of ceftazidime as a drug (C) were placed thereonto as drug-containing disks. The compound (I) used was a compound represented by the formula (I) wherein both R^1 and R^2 are an ethyl group, and M^1 is a sodium cation (disodium 2,3-diethylmaleate). The compound (I) was placed at the center of the agar medium, while the drugs (A) to (C) were placed such that the center of each disk was 20 mm distant from the center of the compound (I). After overnight culture at 35° C., the minimum and maximum radiuses of a growth inhibition zone around each disk were measured, and the degree of change in radius was calculated according to Table 1. The IMP or VIM MBL-producing bacteria were identified using a decision flow of FIG. 2.
In Example 2, bacteria to be tested were IMP-1-producing Pseudomonas aeruginosa. According to the disk diffusion method specified by CLSI, a Muller-Hinton agar medium was coated with the Pseudomonas aeruginosa, and disks were then placed thereonto.
In FIG. 4, the upper disk contained biapenem (BIPM) (A); the lower right disk contained imipenem (IPM) (B); the lower left disk contained ceftazidime (CAZ) (C); and the central disk was a compound (I)-containing disk. […]

C[C@@H](O)[C@H]1C(=O)N2C(C(=O)[O-])=C(SC3Cn4cnc[n+]4C3)[C@H](C)[C@H]12 (stereo partly drawn) [biapenem]
Ratio = Maximum/Minimum inhibition zone radius (degree of change in radius, A3/B3/C3): 2.9 | Inhibition zone radius, Maximum (A2/B2/C2): 16.0 mm | Inhibition zone radius, Minimum (A1/B1/C1): 5.5 mm

CC(C)(O/N=C(\C(=O)N[C@@H]1C(=O)N2C(C(=O)[O-])=C(C[n+]3ccccc3)CS[C@H]12)c1csc(N)n1)C(=O)O [ceftazidime]
Ratio = Maximum/Minimum inhibition zone radius (degree of change in radius, A3/B3/C3): 4.1 | Inhibition zone radius, Maximum (A2/B2/C2): 14.5 mm | Inhibition zone radius, Minimum (A1/B1/C1): 3.5 mm

C[C@@H](O)[C@H]1C(=O)N2C(C(=O)O)=C(SCCN=CN)C[C@H]12 [imipenem]
Ratio = Maximum/Minimum inhibition zone radius (degree of change in radius, A3/B3/C3): 2.2 | Inhibition zone radius, Maximum (A2/B2/C2): 14.0 mm | Inhibition zone radius, Minimum (A1/B1/C1): 6.5 mm
